According to a melting point compilation (Tetko et al.; mined from patent text by program, amines drawn as free bases though some values may be those of a salt):

| SMILES | melting point [°C] |
| --- | --- |
| CS(=O)(=O)C(=C1CN(C(c2ccccc2)c2ccccc2)C1)c1ccc2ccccc2c1 | 178 |
| CCOc1nn(-c2ccc(C(F)(F)F)cn2)cc1CCCCOc1cc(CCC(=O)O)n(-c2ccccc2)n1 | 138 to 139 |
| COc1ccc(-c2c(Cl)c(CN3C(=O)CCC3=O)nc3sc4c(c23)CCN(Cc2ccccc2)C4)cc1OC | 128 to 130 |
| CCCN(CC)S(=O)(=O)NC(=S)N1CC(c2ccccc2)C(c2ccc(Cl)cc2)=N1 (stereo not given) | 144 to 146 |
| Nc1c(N=O)c(=O)n(C2CC2)c(=O)n1C1CC1 | 230 |
| O=C1SC(Cc2ccc(OCCON=Cc3ccc(-c4ccccc4)nc3)cc2)C(=O)N1C(c1ccccc1)(c1ccccc1)c1ccccc1 (stereo not given) | 146 to 148 |
| CC(C)CCC(=O)NC[C@H](O)[C@H](O)[C@H](CC1CCCCC1)NC(=O)OC(C)(C)C | 179 to 183 |
| COC(=O)C(C)NC(=O)C1CCCN1C(=O)OCc1ccccc1 (stereo not given) | 45 to 49 |
| CC(C)(CNC=O)c1ccc2nc(C3CCNCC3)[nH]c2c1 | 234 to 237 |
| Cc1cc(C)cc(Oc2c(CCl)c(C)[nH]c(=O)c2I)c1 | 256 to 258 |
| CCc1nc2c(C)c(S(=O)(=O)N(C)C)c(C)nc2[nH]1 | 179 to 182 |
| CC(CN1CCCC1)N1c2ccccc2Sc2ccc(C(=O)NCC3CCCCC3)cc21 (racemic) | 120 |
| COc1ccc(C2=NN(CC(=O)c3ccccc3OC)C(=O)[C@H]3CCCC[C@@H]23)cc1OC (relative stereo) | 93 to 96 |
| CC1CC(=O)NN=C1c1ccc(C(=O)OC2CCCC2)cc1 (stereo not given) | 120 to 122 |
| CC(=O)Oc1ccc(C(=O)Oc2ccc(OC(=O)c3ccc(OC(C)=O)cc3)cc2)cc1 | 185 to 186 |
| CCCCCCN1CCN(Cc2ccc(NC(N)=S)cc2)C(=O)C1=O | 197 to 198 |
| Cc1c(Br)ccc(S(C)(=O)=O)c1C=NO | 192 to 194 |
| CN(C)C(=O)n1nc(-c2ccccc2)c(-c2ccccc2)c(C#N)c1=O | 231 |
| CC(C)(C)N=NC(C)(C)C#N | 17 |
| CC(C)(C)OC(=O)N1CCc2c(n(CCO)c3c(Cl)c(Cl)ccc23)CC1 | 117 to 120 |
| C=CCCC1(C(F)(F)F)OC(=O)Nc2ccc(Cl)cc21 (racemic) | 165 to 166 |
| CC(C)(C)c1cc(-c2n[nH]c(=S)s2)cc(C(C)(C)C)c1O | 190 to 191 |

| SMILES | melting point [°C] |
| --- | --- |
| COC(=O)C1c2c(C)c(O)c(C)c(C)c2OC1(C)C (stereo not given) | 145 to 146 |
| C#CCNC(=S)Cc1ccccn1 | 62 to 63 |
| C#CCC1(O)CCN(c2ccc(N3C[C@H](CNC(C)=O)OC3=O)cc2F)CC1 | 166 to 167 |
| Cn1c(=O)cc(-c2cccc(Cl)c2)c2cc(C(O)c3cncn3Cc3ccc(C#N)cc3)ccc21 (stereo not given) | 150 |
| CC(C)OP(=O)(OC(C)C)C(=CC=Cc1ccccc1)P(=O)(OC(C)C)OC(C)C | 103 to 104 |
| CN(CC(=O)O)Cc1cc(C(=O)c2cccs2)cc(C(C)(C)C)c1O | 180 to 182 |
| O=C(O)CNC1CCc2ccccc2C1 (stereo not given) | 223 to 227 |
| CC1=Nc2cc(C)c(C)cc2C(=O)C1 | 120 to 122 |
| CCCCNC(=O)Nc1ccc(OCC2CC2)cc1C(=O)NCC1CCN(C(c2ccccc2)c2ccccc2)CC1 | 190 to 192 |
| Cc1ccc2c(C(=O)C(F)(F)F)c[nH]c2c1 | 216 to 218 |
| CCOC(=O)COC1CCC2C3CCC4N=CCCC4(C)C3CCC12C (stereo not given) | 170 to 172 |
| CC(=O)OCc1csc(Nc2ccc(Br)cn2)n1 | 201 to 202 |
| COC(=O)C1CCC2C3CCC4CC=CCC4(C)C3C(=O)CC12C (stereo not given) | 169 to 175 |
| Cc1ccc(OCC(O)CNC(C)C)nc1 (stereo not given) | 62 to 67 |
| COC(=O)COc1ccc(CC2SC(=O)N(C(c3ccccc3)(c3ccccc3)c3ccccc3)C2=O)cc1 (stereo not given) | 158 to 162 |
| O=[N+]([O-])c1ccc(Cl)cc1NN1CCOCC1 | 155 |
| CN(C)C=CC(=O)c1ccc(C(=O)N2Cc3ccnn3Cc3ccccc32)cc1 | 225 to 230 |
| CC(C)n1nc(-c2sc(NC(=O)c3ccccc3C(F)(F)F)nc2-c2ccccc2)ccc1=O | 219 to 220 |
| Cc1ccc(NC(=O)OC2CCCCC2)cc1NC(=O)OC1CCCCC1 | 156 |
| COC(=O)C1(n2c(=O)c3ccccc3n(CCCCBr)c2=O)CCCC1 | 96 to 98 |
| CCOC(=O)OC(C)OC(=O)c1cc(-c2ccc(F)cc2F)ccc1O (stereo not given) | 76 to 78 |
| COCC(=O)OC1(C(=O)COC(C)=O)CCC2C3CC(C)C4=CC(=O)C=CC4(C)C3C(O)CC21C (stereo not given) | 150 to 152 |

| SMILES | melting point [°C] |
| --- | --- |
| Cc1cc(C)c(C)c(-c2cc3cnc(N)nc3nc2N)c1C | 327 to 331 |
| Nc1cc(F)c(C2CCSCC2)c(F)c1 | 118 to 119 |
| C=C(c1ccccc1OC(C)c1ccccc1)n1ccnc1 (stereo not given) | 172 to 174 |
| O=C(CCN1CCCCC1)Nc1cccc(NC(=O)Nc2ccc(N(CCCl)CCCl)cc2)c1 | 108 to 110 |
| CCn1cc(C(=O)O)c(=O)c2cc(F)c(N3CCN(C)C(c4cccs4)C3)cc21 (stereo not given) | 238 to 240 |
| CC(SC1COC(c2ccc(C(=O)Nc3ccc(OC(F)(F)F)cc3)cc2)OC1)C(O)(Cn1cncn1)c1ccc(F)cc1F (stereo not given) | 180 |
| C[C@@H]1[C@H](NC(=O)C(=O)c2csc(N)n2)C(=O)N1S(=O)(=O)O | > 300 |
| COC1=CC(=O)C(O)=C(CCCCCCCC(O)C(O)CCCCCCCC2=C(O)C(=O)C=C(OC)C2=O)C1=O (stereo not given) | 132 to 134 |
| Cc1c(-c2ccccc2)c(N2CC[C@H](N(C)C)C2)c2oc(-c3cnn(C)c3)nc2c1C#N | 214 to 222 |
| CNC(=O)NN(CC(=O)OC)c1ccccc1 | 122 |
| Cc1nc2c(s1)-c1nc(Nc3ccc(Cl)nc3)ncc1CC2 | 252 to 253 |
| CC(=CC(CNC(=O)c1cccnc1)=NO)C(C)[N+](=O)[O-] (stereo not given) | 137 to 139 |
| O=C1NC(=O)c2c1c(-c1ccccc1)cc1[nH]c3ccc(OP(=O)(OCc4ccccc4)OCc4ccccc4)cc3c21 | 193 to 194 |
| Cn1c(CC(=O)NC2CN3CCC2CC3)cc2ccccc21 (stereo not given) | 185 to 187 |
| COc1ccc([N+](=O)[O-])cc1CBr | 78 |
| COc1ccc2ccc(N3C(=O)c4ccccc4C3OCC(=O)NC3CCCCC3)nc2n1 (stereo not given) | 175 |
| CC(C)Oc1cc(-n2c(=O)cc(C(F)(F)F)n(C)c2=O)c(F)cc1Cl | 90 to 93 |
| NC(=O)c1ccc(F)c(F)c1Cl | 142 to 143 |
| O=c1c(Cl)c(S(=O)C2CCCCC2)cnn1-c1ccccc1 (stereo not given) | 128 to 130 |
| CCN1CC(O)CC1=O (stereo not given) | 53 to 54 |
| CCCCCCCCCCCCCCCCCCOc1cc(N(CC(=O)OC)CC(=O)OC)cc(S(C)=O)c1 (stereo not given) | 80 to 82 |

Further lines, results first:

| melting point [°C] | SMILES |
| --- | --- |
| 130 to 132 | CCOC(=O)C(C#N)=Cc1c(Cl)n(Cc2cccc(Cl)c2)c2ccccc12 |
| 136 to 140 | NC(=O)c1cccc(OCc2ccccc2)c1 |
| 157 to 159 | Cc1cnc(C)n2c1c(CCSC1=NCCN1)c1ccccc12 |
| 128 | COc1ccc(-c2cc(CO)c(=O)n(Cc3ccc(Cl)cc3)c2)cc1 |
| 92 to 98 | CC(=O)Nc1ccc(OCCCCO[N+](=O)[O-])cc1 |
| 120 to 122 | CCOC(=O)c1cc(NS(=O)(=O)c2cccnc2)ccc1Oc1cncc(Cl)c1 |
| 97 to 99 | O=Cc1cccnc1Oc1ccc(Cl)c(Cl)c1 |
| 206 to 208 | NC(=O)c1nnn(Cc2ccccc2Cl)c1N |
| 171 to 173 | CCOC1COCC1Oc1cc(C(=O)Nc2c(Cl)cncc2Cl)ccc1OC (stereo not given) |
| 106 to 109 | O=C(c1ccc(Cl)cc1)c1ccc[nH]1 |
| 77 to 81 | COc1cccc(C(=O)N(CC=O)c2ccccc2OC)c1 |
| 150 | c1csc(-c2ccc(-c3cccs3)nc2)c1 |
| 234 to 236 | COc1cccc(Cc2n[nH]c3c2c(=O)n(-c2ccccc2)c2ncccc32)c1 |
| 177 to 178 | O=C(Nc1ccc(Oc2ccccc2)cc1)N1CCN(c2ncnc3cc(F)c(F)cc23)CC1 |
| 74 to 76 | C=CCOc1ccc(C=NO)c(O)c1 |
| 230 to 232 | Nc1c(CC(=O)O)cccc1Nc1ccccc1Cl |
| 126 to 128 | COc1cc(CC#N)ccc1OCCOc1ccc(F)cc1 |
| 81 to 82 | O=Cc1ccc(OCc2ccccc2)c2c1OCO2 |

| melting point [°C] | SMILES |
| --- | --- |
| 172 to 176 | CCn1ccc2ncnc(Oc3ccc(NC(=O)Nc4cccc(C(F)(F)F)c4)c(Cl)c3)c21 |
| 120 to 123 | O=c1oc(-c2cccc(F)c2)nc2cccc(Cl)c12 |
| 57 to 59 | CCOC(=O)c1cnn(-c2c(Cl)cc(C(F)(F)F)cc2Cl)c1 |
| 133 to 136 | CS(=O)(=O)c1ccc(-n2nc(C=O)cc2-c2ccccc2)cc1 |
| 263 | CNc1nc2[nH]c(-c3cccc(CNC(=O)COC)n3)cc2c2c1ncn2C |
| > 250 | O=c1ccc(-c2ccc(-c3ccc(=O)[nH]n3)cc2)n[nH]1 |
| 241 | CCOc1ccc2c(c1)n(-c1ccccn1)c(=O)n2S(=O)(=O)c1ccc(C(=O)O)cc1OC |
| > 300 | CCn1cc(C(N)=O)c(=O)c2ccc(-c3ccncc3)cc21 |
| 214 to 219 | COCCOc1ccc2c(C3C(=O)Nc4ccc(C#N)cc43)nccc2c1 (stereo not given) |
| 120 to 126 | Fc1ccc(F)c(-c2nc(-c3ccccn3)no2)c1 |
| 137 to 138 | CCn1nc(C(=O)OCc2ccccc2)cc(Nc2cnccc2C)c1=O |
| 202 to 204 | CCCOc1ccccc1Nc1ncc(C(=O)O)c(=O)[nH]1 |
| > 290 | CCNC(=O)Nc1ccc(-c2cc3c(Nc4cccc(Cl)c4)ncnc3[nH]2)cc1 |
| 153 to 154 | CC(C)c1n[nH]c2c(NCc3ccccc3)ncnc12 |
| 151 to 153 | CCC(OC)c1cccc2nc3n(c12)CCCN3c1ccc(Cl)cc1Cl (stereo not given) |
| 179 | CC(=O)OC1CSC(Oc2ccc(-c3ccncc3)nc2Cl)C(OC(C)=O)C1OC(C)=O (stereo not given) |
| 111 | CC(C)(C)[N+]([O-])=Cc1ccccc1OCc1ccccc1 |
